In a melting point compilation (Tetko et al.; mined from patent text by program, amines drawn as free bases though some values may be those of a salt) one finds melting point data, which are given here for 63 compounds.

The term melting point denotes the temperature, or range, at which the solid turns liquid. In turn, `COc1cccc2c1oc1ccccc12` registered a melting point of 49 to 50 °C.

`CC(C)CC(CS)C(=O)Nc1cccc(C(=O)O)c1` (stereo not drawn): the melting point is more than 200 °C. Compound `Cc1c(Cc2cccc3ccccc23)c(=O)oc2cc(O)cc(O)c12` returned a melting point of 275 to 280 °C.

For `O=C(c1cc(C2CCCCC2)ccn1)N(O)Cc1ccccc1`, the melting point lay in the range of 106 to 110 °C. As for `CC(C)(C)OC(=O)NCCNC(=O)c1cc(Br)ccn1`, the figure is 134 °C. Compound `CN1C(=O)Cc2cnc(N3CCN(C(c4ccccc4)c4ccccc4)CC3)nc21` returned a melting point of 75 to 80 °C. `Fc1nc(/C=C/c2ccccc2)cn1C(c1ccccc1)(c1ccccc1)c1ccccc1`: the melting point was 167 to 170 °C.

Consider `COc1nc(C)c(C)cc1NC(=O)N1CCN(C(c2ccccc2)c2ccccc2)CC1`, for which the melting point fell in the range of 132 to 134 °C. As for `COc1ccc(Nc2c([N+](=O)[O-])ccc(Cl)c2C(=O)O)cc1Cl`, the figure is 222 to 228 °C; as for `Cn1cc(-c2cnc3c(c2)N(Cc2cc(Cl)ccc2C(F)(F)F)CCN3)cn1`, 156 °C.

`OCCC=Cc1ccc(-c2ccccc2)cc1` displayed a melting point of 142 °C. `Nc1c(Cl)cc(C(O)CNCCC#CCOCCc2ccccc2)cc1Cl` (stereo not drawn) gave a melting point of 62.5 to 63 °C. As to `CC(C)(C)C(=O)N(NC(=O)c1ccccc1)C(C)(C)C`, the melting point was in the range of 217 to 220 °C. `CC(=O)Oc1ccc(C=O)cc1Cl`: the melting point lay in the range of 33 to 35 °C. In turn, `CCCN1Cc2cncn2C(c2ccc(C#N)cc2)C1=O` (stereo not drawn) registered a melting point of 97 to 98 °C.

For the compound `N#Cc1ccc2oc(-c3cccc(O)c3)cc2c1`, the melting point is 222 to 224 °C. `CCS(=O)(=O)C1=C(C(=O)c2ccc(S(C)(=O)=O)cc2Cl)C(=O)CCC1` came in with a melting point of 157 to 161 °C. The result for `O=c1c2cc(F)c(N3CCCC3)nc2n(-c2ccc(C(F)(F)F)cc2)c(=O)n1OCc1ccccc1` reads 231 to 233 °C; that for `O=C(O)CCCOc1ccc(C23CC4CC(CC(C4)C2)C3)cc1Cl`, 164 to 166 °C.

`COC(=O)CC[C@@H](NC(=O)[C@@H](NC(=O)OC(C)(C)C)[C@@H](C)OCc1ccccc1)C(N)=O`: the melting point was 131 to 132 °C. As for `CSc1nc(NS(=O)(=O)c2ccc(C(C)(C)C)cc2)c(-c2ccc(C)cc2)c(OCCOCc2ccccc2)n1`, the melting point was in the range of 115 to 116 °C.

In the case of `CCCc1nc(C)n2nc(SC)nc2c1Cc1ccc([N+](=O)[O-])cc1`, the melting point came out at 130 °C.

In turn, `O=C(O)CCC(NC(=O)c1ccc(-c2ccccc2OC2OC(CO)C(O)C(O)C2O)cc1)C(=O)O` (stereo not drawn) yielded a melting point of 118 to 121 °C. `CC(C)Cn1c(=O)n(C)c(=O)c2c(SCCCO)n(Cc3cccc4ccccc34)nc21` returned a melting point of 135 °C. Take `O=C(O)CN1C(=O)C(NC(=O)[C@@H](S)Cc2ccccc2)CCCc2ccccc21` (stereo partly drawn): the melting point lay within 107 to 111 °C. Take `OCc1cccc2c(-c3ccc(Br)cc3)nccc12`: the melting point amounted to 226 °C.

For `CCC(C)(O)c1cc(NC(=O)N2CCN(c3cc(OC)cc(OC)c3)CC2)c(OC)nc1C` (stereo not drawn), the melting point is 127 to 129 °C. `Cc1ccc(-c2noc3c(Cl)c(OCC(=O)O)ccc23)s1` showed a melting point of 235 to 238 °C. `CCNC(=O)C1=C(C(=O)Nc2cc(OC3CCCC3)c(Cl)cc2F)CCCC1` came in with a melting point of 187 to 189 °C. The compound `Oc1ccc2c(c1)CCc1c-2cc2ccc(O)cc2c1C1CCCC1` displayed a melting point of 233 to 235 °C. On to `FC(F)(F)Cn1cc(C#Cc2cccc(Br)c2)cn1`, for which the melting point lay within 107 to 109 °C. As to `CC(C(=O)O)c1ccc(-c2ccccc2F)c(O)c1` (stereo not drawn), the melting point lay within 110 to 111 °C.

`COC(=O)c1ccc(C=CC(=O)c2ccc3c(c2)C(C)(C)CCC3(C)C)cc1` registered a melting point of 89 to 91 °C. Regarding `N#Cc1ccc(C(=CC(=O)N2CCCCC2)n2ccnc2)cc1`, the melting point lay within 160 to 165 °C. With `O=C(NNC(=O)c1ccncc1)Nc1cccc2c1C(=O)c1c-2n[nH]c1-c1ccc(N2CCNCC2)cc1`, the melting point worked out at 232 °C. `NC(=O)c1c(Cl)c(-c2ccccc2)n2c1CN(C(=O)Nc1ccc(C(=O)O)cc1)CC2` yielded a melting point of 281 to 283 °C.

The compound `CC1(Oc2ccc(N)cc2)C2CC3CC(C2)CC1C3` (stereo not drawn) displayed a melting point of 95.6 to 97.9 °C. As for `COc1ccc(C(C)(C)C)cc1NC(=S)Nc1cccc2ccccc12`, the melting point fell in the range of 158 to 160 °C. As to `CCCNC(=O)c1cnc2ccc(C)cn2c1=O`, the melting point lay within 126 to 128 °C. The result for `CCOC(=O)C(=C1SC=C(O)S1)S(C)(=O)=O` reads 145 to 147 °C. The result for `Cc1ccc(Oc2ccccc2C#N)c(O)c1` reads 118 to 119 °C; that for `CC(=O)N[C@H]1C[C@@H](c2cc(NC(=O)Cc3cccc4ccccc34)n[nH]2)C1`, 209 °C; that for `Cc1ccc(NC(=O)c2ccc(CN3CCN(C)CC3)c(C(F)(F)F)c2)cc1Nc1nc(-c2ccncc2)cs1`, 226 to 227 °C. As for `CNc1cc(S(=O)(=O)c2ccc(N)cc2)cc(Br)n1`, the melting point fell in the range of 171 to 173 °C. With `CCCCCCCCCCCCCCCCS(=O)(=O)NCCc1ccc(C(=O)O)cc1`, the melting point is 168 to 169 °C. For `COC(=O)NCc1cc(C(C)=NOCc2ccc(F)cc2)ccc1Cl`, the melting point was 101 to 103 °C.

Compound `N#Cc1ccc(-c2nc(CCl)co2)s1` registered a melting point of 146 to 147 °C. As to `CCc1nc2c(N)nc3ccccc3c2n1CCCS(=O)(=O)N(C)C`, the melting point lay in the range of 209 to 211 °C.

With `CN1C(=O)NC(Cc2c[nH]c3ccccc23)C1CCc1cc(C(F)(F)F)cc(C(F)(F)F)c1` (stereo not drawn), the melting point was 191 °C. `Cc1ccc(Sc2ccccc2CN(C)C)c([N+](=O)[O-])c1` gave a melting point of 109 to 111 °C. The result for `O=C(O)c1cc(N=Cc2ccccc2)ccc1O` reads 213 to 215 °C.

`CCOC(=O)/C=C/c1cc2cc(OCc3nc(-c4ccccc4)oc3C)ccc2o1` registered a melting point of 120 to 121 °C. For the compound `O=C1NCc2cc(C(=O)c3ccccc3)ccc2N1`, the melting point came out at 265 °C. With `COc1cc(COc2cc(N)c(Cl)cc2C(=O)CCCCN2CCC(C)(C)CC2)cc(OC)c1`, the melting point lay within 135 to 136 °C. With `COC(=O)Cc1ccc(CNC(=O)C2Cc3ccccc3N2S(=O)(=O)c2ccc(-c3cccc(Cl)c3)cc2)cc1` (stereo not drawn), the melting point was 70 °C. The result for `COC(=O)C(C(=O)Nc1ccc(F)cc1)=C1SCS1` reads 141 to 142 °C. `N#Cc1ccc(-c2ccc3oc(CCN)cc3c2)cc1` came in with a melting point of 118 to 120 °C. The result for `Cc1cc(O)cc(Cl)c1Cl` reads 98 to 100 °C; that for `O=c1c2c(Cc3ccccc3OC(F)(F)F)n[nH]c2c2cccnc2n1-c1cccc(C(F)(F)F)c1`, 247 to 252 °C. `CCCCc1nc2c(N)nc3ccccc3c2n1CCOCCN1CCCS1(=O)=O`: the melting point fell in the range of 152 to 154 °C. `CCOC(=O)c1cc(=O)c2cc(OC)cc(Br)c2o1` displayed a melting point of 159 to 161 °C.

With `O=c1n(-c2ccccc2)c(=O)n(SC(Cl)(Cl)Cl)n1SC(Cl)(Cl)Cl`, the melting point was determined as 175 °C. `Cc1cc(-c2cnn3c(C(F)(F)F)cc(-c4ccc(C(F)(F)F)c(C(F)(F)F)c4)nc23)ccn1` yielded a melting point of 223 °C.
